Test results reported in patent publication US8552032B2, “Bicyclic derivatives useful as inhibitors of DPP-1” (Janssen Pharmaceutica NV, priority 2009, dated 2013).

Molecular target: T1, recombinant human DPP-1 (Cathepsin C) (Homo sapiens, UniProt P53634)
T1 construct: made in house
Assay: DPP-1 Inhibition Assay (in vitro), fluorogenic substrate GR-AMC
Assay type: biochemical
Conditions: 0.15 nM DPP-1, 10 uM GR-AMC, pH 7.0, room temperature; average value where tested multiple times
Description: Test compounds were assessed for DPP-1 (Cathepsin C) inhibitory activity using a fluorogenic substrate, GR-AMC (Glycine-Arginine-amino-4-methylcoumarin, Bachem, 1-1215). The amount of amino-methylcoumarin released is proportional to the DPP-1 activity, and the reaction is monitored kinetically with a Molecular Devices plate reader using black 96-well plates.
All compounds were tested under room temperature conditions. The assay buffer consisted of 50 mM HEPES, pH 7.0, 100 mM NaCl, 2 mM glutathione (GSH), and 0.002% TWEEN 20. GSH and TWEEN 20 were added to the buffer fresh daily. Just prior to use, an in-house preparation of recombinant human DPP-1 (240 μM stock, MW 49.6 kD) was diluted 600-fold in assay buffer containing fresh 2 mM dithiothreitol (DTT) to activate the enzyme, then diluted into assay buffer (without DTT) 133-fold for a DPP-1 working solution of 3 nM. Test compounds were diluted in DMSO for 20× their final assay concentrations.
Additions to a 96-well black Costar 3915 plates were as follows: 90 μL of 11 μM GR-AMC, 5 μL test compound (followed by mixing), and 5 μL 3 nM DPP1 to start the reaction. Fluorescent reactions were monitored kinetically at 360 nm excitation, 440 nm emission on a Molecular Devices Spectramax XPS reader. The Softmax Pro software of the reader determined the initial velocity of the selected data (the first 3-5 minutes of the reaction), and the best linear regression fit of the initial kinetic data. Final assay conditions were 0.15 nM DPP-1, 10 uM GR-AMC, 50 mM HEPES, pH 7.0, 100 mM NaCl, 2 mM GSH, 0.002% TWEEN 20, 1 uM DTT, 5.0% DMSO. Initial velocity rates were plotted vs. test compound concentration by use of a four-parameter logistics equation (nonlinear regression, sigmoidal dose-response (variable slope), with fixed Hill (1.0) using GraphPad Prism® software for determination of DPP-1 IC50. Within-run assay coefficient of variation (CV) was generally <10%; between-run CV <20%.
Representative compounds of the present invention were tested according to the procedure as described above, with results as listed in Table 12, below.

T1 sequence (P53634 25-463): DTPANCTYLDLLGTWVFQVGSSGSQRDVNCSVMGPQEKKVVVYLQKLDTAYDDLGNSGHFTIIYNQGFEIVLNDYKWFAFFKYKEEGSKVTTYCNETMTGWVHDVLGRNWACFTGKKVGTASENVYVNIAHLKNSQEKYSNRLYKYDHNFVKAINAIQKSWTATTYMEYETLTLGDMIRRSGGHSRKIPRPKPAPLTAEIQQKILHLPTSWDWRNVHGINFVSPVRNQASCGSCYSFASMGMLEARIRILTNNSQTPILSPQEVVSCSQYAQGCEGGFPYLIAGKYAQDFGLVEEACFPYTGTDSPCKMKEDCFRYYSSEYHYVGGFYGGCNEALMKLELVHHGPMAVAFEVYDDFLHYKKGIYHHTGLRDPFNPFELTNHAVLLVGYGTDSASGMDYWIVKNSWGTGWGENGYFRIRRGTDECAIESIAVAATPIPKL

Row | Compound | IC50 [nM]
1 | CC[C@H](N)C(=O)NCCCc1cc2ccc(C(=O)N(CC)CC)cc2o1 [Compound 46] | 42000
2 | CC[C@H](N)C(=O)NCCCc1cc2cc(-c3cc(OC)cc(OC)c3)ccc2[nH]1 [Compound 96] | 370
3 | CC[C@H](N)C(=O)NCCCc1cc2cc(C(=O)Nc3cc[nH]n3)ccc2[nH]1 [Compound 61] | 4300
4 | COc1ccc(-c2ccc3[nH]c(C4CCN(C(=O)[C@@H](N)Cc5cccs5)CC4)cc3c2)cc1 [Compound 4] | 330
5 | CC[C@H](N)C(=O)NCCCc1csc2ccccc12 [Compound 43] | 14000
6 | CC[C@H](N)C(=O)NCCCc1cc2cc(-c3ccc(C(N)=O)cc3)ccc2[nH]1 [Compound 111] | 690
7 | NC(=O)c1cccc(-c2ccc3[nH]c(C4CCN(C(=O)[C@@H](N)Cc5cccs5)CC4)nc3c2)c1 [Compound 19] | 240
8 | NC(=O)c1cccc(-c2ccc3[nH]c(C4CCN(C(=O)[C@@H](N)Cc5cccs5)CC4)cc3c2)c1 [Compound 5] | 300
9 | COc1ccc(-c2ccc3[nH]c(C4CCN(C(=O)[C@@H](N)Cc5cn(C)cn5)CC4)cc3c2)cc1OC [Compound 14] | 3370
10 | N[C@@H](Cc1cccs1)C(=O)N1CCC(c2cc3ccccc3o2)CC1 [Compound 1] | 1200
11 | CC[C@H](N)C(=O)NCCCc1cc2cc([N+](=O)[O-])ccc2o1 [Compound 49] | 19000
12 | CC[C@H](N)C(=O)NCCCc1cc2cc(C(=O)Nc3cc(-c4ccccc4)[nH]n3)ccc2[nH]1 [Compound 62] | 2800
13 | CC[C@H](N)C(=O)NCCCc1cc2cc(-c3ccncc3)ccc2[nH]1 [Compound 114] | 670
14 | CC[C@H](N)C(=O)NCCCc1cc2cc(C(=O)Nc3cccc(C)c3)ccc2[nH]1 [Compound 93] | 920
15 | CC[C@H](N)C(=O)NCCCc1cc2cc(-c3cccc(S(N)(=O)=O)c3)ccc2[nH]1 [Compound 113] | 700
16 | CC[C@H](N)C(=O)NCCCc1cc2cc(C(=O)Nc3cccc4cnccc34)ccc2o1 [Compound 65] | 480
17 | COc1ccc(-c2ccc3[nH]c(C4CCN(C(=O)[C@@H](N)Cc5cccs5)CC4)cc3c2)cc1OC [Compound 2, (S)-2-amino-1-(4-(5-(3,4-dimethoxyphenyl)-1H-indol-2-yl)piperidin-1-yl)-3-(thiophen-2-yl)propan-1-one] | 94
18 | CC[C@H](N)C(=O)NCCCc1cc2cc(C(=O)Nc3cccc4ncccc34)ccc2o1 [Compound 55] | 220
19 | CC[C@H](N)C(=O)NCCCc1cc2cc(-c3ccccc3C(N)=O)ccc2[nH]1 [Compound 116] | 2000
20 | CC[C@H](N)C(=O)NCCCc1cc2cc(C(=O)O)ccc2o1 [Compound 74] | > 10000
21 | COc1ccc(NC(=O)c2ccc3[nH]c(CCCNC(=O)[C@@H](N)Cc4nccs4)cc3c2)cc1OC [Compound 117, (S)-2-(3-(2-amino-3-(thiazol-2-yl)propanamido)propyl)-N-(3,4-dimethoxyphenyl)-1H-indole-5-carboxamide] | 81

Row | Compound | IC50 [nM]
22 | CC[C@H](N)C(=O)NCCCc1cc2cc(C(=O)NCc3ccccc3)ccc2o1 [Compound 53] | 7400
23 | CC[C@H](N)C(=O)NCCCc1cc2cc(-c3ccccc3)ccc2[nH]1 [Compound 100] | 520
24 | CC[C@H](N)C(=O)NCCc1nc2ccccc2n1C [Compound 39] | 43000
25 | CC[C@H](N)C(=O)NCCCc1cc2cc(C(=O)NC3CCNc4ccccc43)ccc2o1 (some centres unmarked) [Compound 73] | 1800
26 | CC[C@H](N)C(=O)NCCCc1cc2cc(-c3ccc4c(c3)OCO4)ccc2[nH]1 [Compound 112] | 520
27 | COc1ccc(-c2ccc3[nH]c(C4CCN(C(=O)C(N)c5cccs5)CC4)cc3c2)cc1OC (centres unmarked) [Compound 28] | > 20000
28 | CC[C@H](N)C(=O)NCCCc1cc2cc(C(=O)N3CCCc4ccccc43)ccc2o1 [Compound 71] | 2600
29 | COc1ccc(-c2ccc3[nH]c(C4CCN(C(=O)[C@@H](N)Cc5cccs5)CC4)nc3c2)cc1OC [Compound 18, (S)-2-amino-1-(4-(5-(3,4-dimethoxyphenyl)-1H-benzo[d]imidazol-2-yl)piperidin-1-yl)-3-(thiophen-2-yl)propan-1-one] | 210
30 | CC[C@H](N)C(=O)NCCCc1cc2cc(C(=O)Nc3ccc(C(C)(C)C)cc3)ccc2[nH]1 [Compound 78] | 910
31 | CC[C@H](N)C(=O)NCCCc1cc2cc(-c3ccc(OC)cc3)ccc2[nH]1 [Compound 104] | 340
32 | CC[C@H](N)C(=O)N(C)CCCc1cc2cc(C(=O)Nc3ccc(OC)c(OC)c3)ccc2[nH]1 [Compound 107] | 9000
33 | CC[C@H](N)C(=O)NCCCc1cc2cc(C(=O)Nc3ccccc3F)ccc2[nH]1 [Compound 87] | 2600
34 | CC[C@H](N)C(=O)NCCCc1cc2cc(Oc3ccc(OC)c(OC)c3)ccc2[nH]1 [Compound 99, (S)-2-amino-N-(3-(5-(3,4-dimethoxyphenoxy)-1H-indol-2-yl)propyl)butanamide] | 420
35 | CC[C@H](N)C(=O)NCCCc1cc2cc(C(=O)Nc3cccc(F)c3)ccc2[nH]1 [Compound 90] | 900
36 | CC[C@H](N)C(=O)NCCCc1cc2cc(C(=O)Nc3ccccc3)ccc2o1 [Compound 51] | 4100
37 | CC[C@H](N)C(=O)NCCCc1cc2cc(C(=O)Nc3ccc(F)cc3)ccc2[nH]1 [Compound 79] | 1300
38 | CC[C@H](N)C(=O)NCCCc1cc2cc(C(=O)Nc3ccc(OC)c(OC)c3)ccc2[nH]1 (single isomer, unassigned) [Compound 110] | > 10000
39 | COc1ccc(NC(=O)c2ccc3[nH]c(C4CCN(C(=O)[C@@H](N)Cc5cccs5)CC4)cc3c2)cc1OC [Compound 7] | 140
40 | COc1ccc(-c2ccc3[nH]c(C4CCN(C(=O)[C@@H](N)Cc5ccc(Cl)s5)CC4)cc3c2)cc1OC [Compound 24] | 5800
41 | CC[C@H](N)C(=O)NCCCc1cc2cc(C(=O)Nc3ccc(C)cc3)ccc2[nH]1 [Compound 75] | 1100
42 | CC[C@H](N)C(=O)NCCCc1cc2cc(C(=O)Nc3ccc(OC)c(OC)c3)ccc2o1 [Compound 58] | 730

Row | Compound | IC50 [nM]
43 | CC[C@H](N)C(=O)NCCCc1cc2cc(-c3ccc(OC(F)(F)F)cc3)ccc2[nH]1 [Compound 105] | 860
44 | COc1ccc(-c2ccc3[nH]c(C4CCN(C(=O)C(N)c5ccsc5)CC4)cc3c2)cc1OC (centres unmarked) [Compound 30] | > 20000
45 | COc1ccc(-c2ccc3[nH]c(C4CCN(C(=O)[C@@H](N)CC5CCC5)CC4)cc3c2)cc1OC [Compound 12] | 14000
46 | COc1ccc(-c2ccc3[nH]c(C4CCN(C(=O)[C@@H](N)Cn5cccn5)CC4)cc3c2)cc1OC [Compound 11] | ~12000
47 | CC[C@H](N)C(=O)NCCCc1cc2cc(-c3ccccc3)ccc2o1 [Compound 45] | 9600
48 | CC[C@H](N)C(=O)NCCc1nc2ccccc2[nH]1 [Compound 38] | 6500
49 | COc1ccc(-c2ccc3[nH]c(C4CCN(C(=O)[C@@H](N)Cc5ccco5)CC4)cc3c2)cc1OC [Compound 13] | 850
50 | CC[C@H](N)C(=O)NCCCc1cc2cc(C(=O)Nc3cnc4ccccc4c3)ccc2o1 [Compound 64] | 350
51 | CC[C@H](N)C(=O)NCCCc1cc2cc(-c3ccc(F)cc3)ccc2[nH]1 [Compound 101] | 790
52 | N[C@@H](Cc1cccs1)C(=O)NCCCc1cc2ccccc2o1 [Compound 56] | 1100
53 | COc1ccc(-c2ccc3[nH]c(C4CCN(C(=O)[C@@H](N)Cc5ccsc5)CC4)cc3c2)cc1OC [Compound 15] | 2200
54 | CC[C@H](N)C(=O)NCCCc1cc2cc(C(=O)Nc3cccc(Cl)c3)ccc2[nH]1 [Compound 91] | 800
55 | CC[C@H](N)C(=O)NCCCc1cc2cc(C(=O)Nc3ccc4ncsc4c3)ccc2o1 [Compound 57] | 700
56 | COc1ccc(-c2ccc3[nH]c(C4CCN(C(=O)C(N)c5ccco5)CC4)cc3c2)cc1OC (centres unmarked) [Compound 29] | > 20000
57 | N[C@@H](Cc1cccs1)C(=O)N1CCC(c2cc3cc(-c4ccc5c(c4)OCCO5)ccc3[nH]2)CC1 [Compound 3] | 270
58 | CC[C@H](N)C(=O)NCCCc1cc2cc(C(=O)Nc3ccc(OC)c(OC)c3)ccc2[nH]1 [Compound 50, (S)-2-(3-(2-aminobutanamido)propyl)-N-(3,4-dimethoxyphenyl)-1H-indole-5-carboxamide] | 240
59 | CC[C@H](N)C(=O)NCCCc1cc2cc(C(=O)Nc3cccc4[nH]cnc34)ccc2o1 [Compound 85] | 2400
60 | CC[C@H](N)C(=O)NCCCc1cc2cc(C(=O)Nc3cccc4ccccc34)ccc2o1 [Compound 54] | 850
61 | N[C@@H](Cc1cccs1)C(=O)NCCc1cc2ccccc2o1 [Compound 35] | 1300
62 | CC[C@H](N)C(=O)NCCCc1cc2cc(-c3cc(C(F)(F)F)cc(C(F)(F)F)c3)ccc2[nH]1 [Compound 109] | 760
